From PubChem BioAssay (NCI)
Values joined by “and” are separate entries in the source; they are usually repeats but may differ in a detail not shown here. Identical values can stand only once.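 Assay format: 96-well plates, 48-hour exposure. GI50 = concentration required for 50% inhibition of growth. TGI denotes the concentration required for complete inhibition of growth.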

Experiments:
Assay in all cases: NCI-60 cell line screen, 48 h; in the data active = GI50 below about 0.43 µM; inactive = the rest
SK-OV-3 ovarian = test system: SK-OV-3 ovarian
SF-539 CNS = test system: SF-539 CNS
KM12 colon = test system: KM12 colon
MDA-N = test system: MDA-N
CCRF-CEM leukemia = test system: CCRF-CEM leukemia
SK-MEL-2 melanoma = test system: SK-MEL-2 melanoma
IGROV1 ovarian = test system: IGROV1 ovarian
OVCAR-3 ovarian = test system: OVCAR-3 ovarian
M14 melanoma = test system: M14 melanoma
HT29 colon = test system: HT29 colon
HCT-15 colon = test system: HCT-15 colon
K-562 leukemia = test system: K-562 leukemia
A549 NSCLC = test system: A549 NSCLC
NCI-H460 lung = test system: NCI-H460 lung
T-47D breast = test system: T-47D breast
MOLT-4 leukemia = test system: MOLT-4 leukemia
HOP-92 NSCLC = test system: HOP-92 NSCLC
ACHN renal = test system: ACHN renal
HL-60(TB) leukemia = test system: HL-60(TB) leukemia
RPMI-8226 leukemia = test system: RPMI-8226 leukemia
SK-MEL-5 melanoma = test system: SK-MEL-5 melanoma
NCI-H226 lung = test system: NCI-H226 lung
MALME-3M melanoma = test system: MALME-3M melanoma
UACC-257 melanoma = test system: UACC-257 melanoma
OVCAR-4 ovarian = test system: OVCAR-4 ovarian
NCI-H522 lung = test system: NCI-H522 lung
LOX IMVI melanoma = test system: LOX IMVI melanoma
OVCAR-8 ovarian = test system: OVCAR-8 ovarian
SW-620 colon = test system: SW-620 colon
HCT-116 colon = test system: HCT-116 colon
EKVX NSCLC = test system: EKVX NSCLC
786-0 renal = test system: 786-0 renal
UO-31 renal = test system: UO-31 renal
CAKI-1 renal = test system: CAKI-1 renal
TK-10 renal = test system: TK-10 renal
U251 CNS = test system: U251 CNS
UACC-62 melanoma = test system: UACC-62 melanoma
SK-MEL-28 melanoma = test system: SK-MEL-28 melanoma
OVCAR-5 ovarian = test system: OVCAR-5 ovarian
SN12C renal = test system: SN12C renal
HOP-62 NSCLC = test system: HOP-62 NSCLC
SNB-19 CNS = test system: SNB-19 CNS
MCF7 breast = test system: MCF7 breast
SF-268 CNS = test system: SF-268 CNS
BT-549 breast = test system: BT-549 breast
NCI/ADR-RES ovarian = test system: NCI/ADR-RES ovarian
SR leukemia = test system: SR leukemia
COLO 205 colon = test system: COLO 205 colon
MDA-MB-435 = test system: MDA-MB-435
MDA-MB-231 breast = test system: MDA-MB-231 breast
HS 578T breast = test system: HS 578T breast
SF-295 CNS = test system: SF-295 CNS
A498 renal = test system: A498 renal
SNB-75 CNS = test system: SNB-75 CNS
DU-145 prostate = test system: DU-145 prostate
PC-3 prostate = test system: PC-3 prostate
RXF 393 renal = test system: RXF 393 renal
NCI-H23 lung = test system: NCI-H23 lung
HCC-2998 colon = test system: HCC-2998 colon

O=C(O)CSCc1cccc2ccccc12
> 100 µM: TGI (SK-OV-3 ovarian) | TGI (SF-539 CNS) | TGI (KM12 colon) | TGI (MDA-N) | TGI (CCRF-CEM leukemia) | TGI (SK-MEL-2 melanoma) | TGI (IGROV1 ovarian) | TGI (OVCAR-3 ovarian) | TGI (M14 melanoma) | TGI (HT29 colon) | TGI (HCT-15 colon) | TGI (K-562 leukemia) | TGI (A549 NSCLC) | TGI (NCI-H460 lung) | TGI (T-47D breast) | TGI (MOLT-4 leukemia) | TGI (HOP-92 NSCLC) | TGI (ACHN renal) | TGI (HL-60(TB) leukemia) | TGI (RPMI-8226 leukemia) | TGI (SK-MEL-5 melanoma) | TGI (NCI-H226 lung) | TGI (MALME-3M melanoma) | TGI (UACC-257 melanoma) | TGI (OVCAR-4 ovarian) | TGI (NCI-H522 lung) | TGI (LOX IMVI melanoma) | TGI (OVCAR-8 ovarian) | TGI (SW-620 colon) | TGI (HCT-116 colon) | TGI (EKVX NSCLC) | TGI (786-0 renal) | TGI (UO-31 renal) | TGI (CAKI-1 renal) | TGI (TK-10 renal) | TGI (U251 CNS) | TGI (UACC-62 melanoma) | TGI (SK-MEL-28 melanoma) | TGI (OVCAR-5 ovarian) | TGI (SN12C renal) | TGI (HOP-62 NSCLC) | TGI (SNB-19 CNS) | TGI (MCF7 breast) | TGI (SF-268 CNS) | TGI (BT-549 breast) | TGI (NCI/ADR-RES ovarian) | TGI (SR leukemia) | TGI (COLO 205 colon) | TGI (MDA-MB-435) | TGI (MDA-MB-231 breast) | TGI (HS 578T breast) | TGI (SF-295 CNS) | TGI (A498 renal) | TGI (SNB-75 CNS) | TGI (DU-145 prostate) | TGI (PC-3 prostate) | TGI (RXF 393 renal) | TGI (NCI-H23 lung)

CC[C@@]1(O)C(=O)OCc2c1cc1n(c2=O)Cc2c-1nc1ccccc1c2/C=N\NC(=O)C(N)CC(C)C (some centres not stated)
1.44 µM: TGI (OVCAR-8 ovarian)
0.646 µM: TGI (U251 CNS)
2.16 µM: TGI (A549 NSCLC)
3.68 µM: TGI (SF-268 CNS)
> 68.6 µM: TGI (OVCAR-5 ovarian)
0.154 µM: TGI (RXF 393 renal)
0.382 µM: TGI (HOP-62 NSCLC)
1.61 µM: TGI (SN12C renal)
6.17 µM: TGI (HCC-2998 colon)
0.648 µM: TGI (M14 melanoma)
> 22 µM: TGI (IGROV1 ovarian)
2.8 µM: TGI (MDA-MB-435)
> 40.2 µM: TGI (SW-620 colon)
< 0.0248 µM: TGI (SNB-75 CNS)
1.6 µM: TGI (NCI-H522 lung)
> 100 µM: TGI (MDA-N) | TGI (HT29 colon) | TGI (K-562 leukemia) | TGI (T-47D breast) | TGI (HL-60(TB) leukemia) | TGI (OVCAR-4 ovarian) | TGI (EKVX NSCLC) | TGI (786-0 renal) | TGI (TK-10 renal) | TGI (SK-MEL-28 melanoma) | TGI (SNB-19 CNS) | TGI (MCF7 breast) | TGI (BT-549 breast) | TGI (MDA-MB-231 breast) | TGI (HS 578T breast) | TGI (DU-145 prostate) | TGI (PC-3 prostate)
12.1 µM: TGI (COLO 205 colon)
0.201 µM: TGI (UO-31 renal)
0.181 µM: TGI (CAKI-1 renal)
0.856 µM: TGI (NCI/ADR-RES ovarian)
0.975 µM: TGI (NCI-H226 lung)
1.81 µM: TGI (UACC-257 melanoma)
2.3 µM: TGI (OVCAR-3 ovarian)
0.244 µM: TGI (LOX IMVI melanoma)
0.112 µM: TGI (NCI-H23 lung)
0.106 µM: TGI (MOLT-4 leukemia)
1.26 µM: TGI (NCI-H460 lung)
5.35 µM: TGI (HOP-92 NSCLC)
7.31 µM: TGI (MALME-3M melanoma)
2.99 µM: TGI (SK-MEL-2 melanoma)
0.694 µM: TGI (SF-295 CNS)
0.0748 µM: TGI (UACC-62 melanoma)
0.0807 µM: TGI (SK-MEL-5 melanoma)
< 0.0109 µM: TGI (SR leukemia)
3.71 µM: TGI (RPMI-8226 leukemia)
0.263 µM: TGI (A498 renal)
> 36.2 µM: TGI (HCT-15 colon)
0.629 µM: TGI (CCRF-CEM leukemia)
5.37 µM: TGI (HCT-116 colon)

O=C1NC(N/N=C\C(O)C(O)C(O)CO)=N/C1=C/c1ccccc1 (configuration not stated)
inactive: GI50 (SF-539 CNS) > 100 µM and 34.3 µM | GI50 (KM12 colon) > 100 µM and 28.1 µM | GI50 (CCRF-CEM leukemia) 65.9 µM and 32.7 µM | GI50 (IGROV1 ovarian) > 100 µM and 43.3 µM | GI50 (OVCAR-3 ovarian) > 100 µM and 47.6 µM | GI50 (M14 melanoma) > 100 µM and 30.4 µM | GI50 (HCT-15 colon) > 100 µM and 35.5 µM | GI50 (K-562 leukemia) > 100 µM and 22.7 µM | GI50 (NCI-H460 lung) > 100 µM and 43.4 µM | GI50 (T-47D breast) > 100 µM and 49.2 µM | GI50 (HOP-92 NSCLC) > 100 µM and 45 µM | GI50 (HL-60(TB) leukemia) > 100 µM and 41.2 µM | GI50 (RPMI-8226 leukemia) > 100 µM and 33.7 µM | GI50 (SK-MEL-5 melanoma) > 100 µM and 38.9 µM | GI50 (OVCAR-4 ovarian) 84.1 µM and 23.4 µM | GI50 (NCI-H522 lung) > 100 µM and 46.5 µM | GI50 (SW-620 colon) > 100 µM and 34 µM | GI50 (HCT-116 colon) > 100 µM and 37.5 µM | GI50 (SK-MEL-28 melanoma) > 100 µM and 25.6 µM | GI50 (SN12C renal) > 100 µM and 46.8 µM | GI50 (BT-549 breast) > 100 µM and 27.4 µM | GI50 (SR leukemia) > 100 µM and 44.1 µM | GI50 (MDA-MB-435) > 100 µM and 49.6 µM | GI50 (SF-295 CNS) > 100 µM and 38.2 µM | GI50 (A498 renal) > 100 µM and 39.3 µM | GI50 (PC-3 prostate) > 100 µM and 48.9 µM
> 100 µM: TGI (SK-OV-3 ovarian) | TGI (SF-539 CNS) | TGI (KM12 colon) | TGI (MDA-N) | TGI (CCRF-CEM leukemia) | TGI (SK-MEL-2 melanoma) | TGI (IGROV1 ovarian) | TGI (OVCAR-3 ovarian) | TGI (HT29 colon) | TGI (HCT-15 colon) | TGI (K-562 leukemia) | TGI (A549 NSCLC) | TGI (NCI-H460 lung) | TGI (T-47D breast) | TGI (HOP-92 NSCLC) | TGI (ACHN renal) | TGI (HL-60(TB) leukemia) | TGI (RPMI-8226 leukemia) | TGI (SK-MEL-5 melanoma) | TGI (NCI-H226 lung) | TGI (MALME-3M melanoma) | TGI (UACC-257 melanoma) | TGI (NCI-H522 lung) | TGI (LOX IMVI melanoma) | TGI (OVCAR-8 ovarian) | TGI (HCC-2998 colon) | TGI (SW-620 colon) | TGI (HCT-116 colon) | TGI (EKVX NSCLC) | TGI (786-0 renal) | TGI (UO-31 renal) | TGI (CAKI-1 renal) | TGI (TK-10 renal) | TGI (U251 CNS) | TGI (SK-MEL-28 melanoma) | TGI (OVCAR-5 ovarian) | TGI (SN12C renal) | TGI (HOP-62 NSCLC) | TGI (SNB-19 CNS) | TGI (MCF7 breast) | TGI (SF-268 CNS) | TGI (NCI/ADR-RES ovarian) | TGI (SR leukemia) | TGI (COLO 205 colon) | TGI (MDA-MB-435) | TGI (MDA-MB-231 breast) | TGI (HS 578T breast) | TGI (SF-295 CNS) | TGI (A498 renal) | TGI (SNB-75 CNS) | TGI (DU-145 prostate) | TGI (PC-3 prostate) | TGI (RXF 393 renal) | TGI (NCI-H23 lung)
> 100 µM and 79.8 µM: TGI (OVCAR-4 ovarian)
> 100 µM and 54.3 µM: TGI (MOLT-4 leukemia)
> 100 µM and 76.9 µM: TGI (M14 melanoma)
> 100 µM and 99.8 µM: TGI (BT-549 breast)
